The structures appear in SMILES notation. pEC50: −log10 of the molar value. “And” between values parts separate entries of the source, which are not always exact repeats. Identical values can stand only once. Like-named read-outs stand apart in the source and are kept apart here.

One data set concerns the target T1, hPPARdelta (Homo sapiens, UniProt Q03181).
T1 construct: expressed in transfected cells; host or cells: COS-7 (monkey kidney fibroblasts)
T1 sequence (Q03181 211-439 limits assumed): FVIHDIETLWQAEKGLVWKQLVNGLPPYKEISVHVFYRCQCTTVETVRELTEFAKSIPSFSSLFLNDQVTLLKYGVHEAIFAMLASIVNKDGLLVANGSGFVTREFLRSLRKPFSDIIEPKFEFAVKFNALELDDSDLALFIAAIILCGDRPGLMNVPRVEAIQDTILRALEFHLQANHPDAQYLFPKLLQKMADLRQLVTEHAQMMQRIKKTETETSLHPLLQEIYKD
Put plainly: PPAR activation: Gal4-hPPARδ chimera luciferase transactivation in COS-7 cells, Method 2. The format is cell-based. To be noted: COS-7, 24 h; for pEC50: 1% Ultroser; for Emax: maximum percentage response relative to the reference GW501516, read-out: hPPARdelta % max. The method, then:
(§1) The activation of the PPARs was evaluated in vitro on a line of monkey kidney fibroblasts (COS-7) by measuring the transcriptional activity of chimeras constituted of the DNA binding domain of the Gal4 transcription factor of yeast and the ligand binding domain of the various PPARs. The compounds were tested at doses between 10^−5 and […] on the chimeras Gal4-PPARα, γ or δ, and the corresponding EC50 values were determined.
(§2) The principle, the cells and the plasmids used for example 5 were also employed in this example. Only the application of the transfection stage is slightly different. The details are presented below.
(§3) The adherent COS-7 cells are transfected with 40 μg of DNA per 225 cm^2 dish, with a pGal4-PPAR/Gal4(RE)_TkpGL3 ratio of 1/10, in the presence of 10% fetal calf serum. The cells are then detached and seeded in the absence of serum in 384-well plates (2×10^4 cells/well) and incubated for 4 hours at 37° C. The compounds are then diluted in a 96-well plate and transferred to the 384-well plate. Activation with the test compounds is carried out for an additional 24 h at 37° C. in the presence of 1% of Ultroser™ lipid-free synthetic serum (Biosepra). These last 2 stages are automated using a Genesis Freedom 200™ station (Tecan). At the end of the experiment, the cells are lysed and the luciferase activity is determined using the Steady-Lite™ HTS (Perkin Elmer) following the supplier's recommendations.

The target of the next data set is T2, hPPARalpha (Homo sapiens, UniProt Q07869).
T2 construct: expressed in transfected cells; host or cells: COS-7 (monkey kidney fibroblasts)
T2 sequence (Q07869 239-466 limits assumed): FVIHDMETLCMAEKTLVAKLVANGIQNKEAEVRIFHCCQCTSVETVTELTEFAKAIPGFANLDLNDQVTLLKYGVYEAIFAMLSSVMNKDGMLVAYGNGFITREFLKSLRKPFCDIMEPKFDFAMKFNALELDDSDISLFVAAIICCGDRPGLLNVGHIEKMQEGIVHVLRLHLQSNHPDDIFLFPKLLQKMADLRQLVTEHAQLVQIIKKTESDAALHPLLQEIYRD
Description: PPAR activation: Gal4-hPPARα chimera luciferase transactivation in COS-7 cells, Method 2. To be noted: COS-7, 24 h; for pEC50: 1% Ultroser; for Emax: maximum percentage response relative to the reference phenofibric acid, read-out: hPPARalpha % max. It counts as cell-based. The method, then: as §1, §2, §3

A further data set addresses T3, hPPARgamma (Homo sapiens, UniProt P37231).
T3 construct: expressed in transfected cells; host or cells: COS-7 (monkey kidney fibroblasts)
T3 sequence (P37231 238-503 limits assumed): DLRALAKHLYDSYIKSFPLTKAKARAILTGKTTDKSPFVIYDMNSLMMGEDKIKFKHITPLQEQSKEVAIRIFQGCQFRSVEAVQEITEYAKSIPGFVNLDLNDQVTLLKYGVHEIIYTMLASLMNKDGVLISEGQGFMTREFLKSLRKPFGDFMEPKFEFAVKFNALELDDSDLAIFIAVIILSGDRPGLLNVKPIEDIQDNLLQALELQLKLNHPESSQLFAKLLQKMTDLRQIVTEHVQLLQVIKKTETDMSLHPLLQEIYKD
Description: PPAR activation: Gal4-hPPARγ chimera luciferase transactivation in COS-7 cells, Method 2. The format is cell-based. The settings on record: COS-7, 24 h; for pEC50: 1% Ultroser. The procedure: The activation of the PPARs was evaluated in vitro on a line of monkey kidney fibroblasts (COS-7) by measuring the transcriptional activity of chimeras constituted of the DNA binding domain of the Gal4 transcription factor of yeast and the ligand binding domain of the various PPARs.
Only the application of the transfection stage is slightly different. The details are presented below.
as §3

[1] abbreviates: maximum percentage response relative to the reference rosiglitazone, Method 2, read-out: hPPARgamma % max.
[2] abbreviates: Method 2, read-out: hPPARgamma EC50.

Usually pEC50 stands for −log10 of the EC50, conventionally taken in molar units. For orientation: melting point means the temperature of the solid-liquid transition. Consider `CON=C(CCc1ccc(OC(C)(C)C(=O)O)c(Cl)c1Cl)c1ccc(-c2ccc(C(F)(F)F)cc2)s1` (mixture of isomers) [Compound 50, 2-(2,3-dichloro-4-(3-(methoxyimino)-3-(5-(4-(trifluoromethyl)-phenyl)thien-2-yl)propyl)phenoxy)-2-methylpropanoic acid], for which the melting point is 68 to 69 °C. On hPPARdelta, the pEC50 is 7.30 and the Emax came to 78%. Besides, at hPPARalpha, the negative-log EC50 (pEC50) is 6.59 and the Emax worked out at 38%. The Emax on hPPARgamma (setting [1]) stood at 32%. In addition, at hPPARgamma (setting [2]), the pEC50 is 6.57.
Compound `O=C(O)COc1ccc(CCC(=O)c2ccc(-c3ccc(C(F)(F)F)cc3)s2)cc1F` [Compound 25, 2-(2-fluoro-4-(3-oxo-3-(5-(4-(trifluoromethyl)phenyl)thien-2-yl)-propyl)phenoxy)acetic acid] came in with a melting point of 170 to 171 °C. Further, on hPPARdelta, the pEC50 is 5.13 and the Emax stood at 75%. In addition, at hPPARalpha, the pEC50 was 5.77 and the Emax worked out at 55%. The Emax on hPPARgamma (setting [1]) is 27%. Further, at hPPARgamma (setting [2]), the pEC50 was 4.44.
In the case of `CC(C)(Oc1ccc(CCC(=O)c2ccc(-c3ccc(C(F)(F)F)cc3)o2)c(Cl)c1Cl)C(=O)O` [Compound 38, 2-(2,3-dichloro-4-(3-oxo-3-(5-(4-(trifluoromethyl)phenyl)fur-2-yl)-propyl)phenoxy)-2-methylpropanoic acid], the melting point was 85 °C. In addition, at hPPARdelta, the pEC50 is 7.85 and 8.05; the Emax worked out at 89%. On hPPARalpha, the pEC50 is 6.70 and 6.49; the Emax came to 44%. In addition, the Emax at hPPARgamma (read-out: hPPARgamma % max, maximum percentage response relative to the reference rosiglitazone, Method 2) came out at 37%. Also, on hPPARgamma (hPPARgamma EC50, Method 2), the negative-log EC50 (pEC50) was 5.74 and 6.09.
`CC(C)(Oc1ccc(CCC(=O)c2ccc(-c3ccc(Br)cc3)s2)c(Cl)c1Cl)C(=O)O` [Compound 52, 2-(4-(3-(5-(4-bromophenyl)thien-2-yl)-3-oxopropyl)-2,3-dichloro-phenoxy)-2-methylpropanoic acid] showed a melting point of 155 to 157 °C. At hPPARdelta, the pEC50 was 7.30 and the Emax came out at 104%. On hPPARalpha, the pEC50 was 6.68 and the Emax is 53%. Also, the Emax on hPPARgamma (setting [1]) is 57%. The negative-log EC50 (pEC50) on hPPARgamma (setting [2]) is 5.99.
With `CSc1ccc(-c2ccc(C(=O)CCc3ccc(OC(C)(C)C(=O)O)c(Cl)c3Cl)s2)cc1` [Compound 54, 2-(2,3-dichloro-4-(3-(5-(4-(methylthio)phenyl)thien-2-yl)-3-oxo-propyl)phenoxy)-2-methylpropanoic acid], the melting point was in the range of 171 to 172 °C. At hPPARdelta, the pEC50 was 7.15 and the Emax amounted to 107%. Also, on hPPARalpha, the pEC50 was 6.82 and the Emax is 43%. On hPPARgamma (setting [1]), the Emax was 62%. In addition, the negative logarithm of the EC50 (pEC50) at hPPARgamma (setting [2]) is 6.07.
`CC(C)OC(CCc1ccc(OC(C)(C)C(=O)O)c(Cl)c1Cl)c1ccc(-c2ccc(C(F)(F)F)cc2)s1` (stereo not drawn) [Compound 55, 2-(2,3-dichloro-4-(3-isopropoxy-3-(5-(4-(trifluoromethyl)-phenyl)thien-2-yl)propyl)phenoxy)-2-methylpropanoic acid] yielded a melting point of 88 to 90 °C. On hPPARdelta, the pEC50 was 5.33 and the Emax is 34%. On hPPARalpha, the pEC50 was 5.55 and the Emax worked out at 25%. Moreover, the Emax at hPPARgamma (setting [1]) turned out to be 2%.
Compound `CC(C)(Oc1ccc(CCC(=O)c2ccc(-c3ccccc3)s2)c(Cl)c1Cl)C(=O)O` [Compound 57, 2-(2,3-dichloro-4-(3-oxo-3-(5-phenylthien-2-yl)propyl)phenoxy)-2-methylpropanoic acid] yielded a melting point of 179 to 180 °C. Besides, on hPPARdelta, the pEC50 is 6.46 and the Emax came to 88%. Besides, on hPPARalpha, the pEC50 is 6.00 and the Emax was 44%. For the same compound, the Emax on hPPARgamma (setting [1]) turned out to be 39%. The pEC50 on hPPARgamma (setting [2]) was 5.82.

Values taken from US8088819B2, “Derivatives of substituted 3-phenyl-1-(phenylthienyl)propan-1-ones and of 3-phenyl-1-(phenylfuranyl) propan-1-ones, preparation and use” (priority 2006, dated 2012).
